In paper PMC12153338, “Resistance to oxyimino-cephalosporins conferred by an alternative mechanism of hydrolysis by the Acinetobacter-derived cephalosporinase-33 (ADC-33), a class C β-lactamase present in carbapenem-resistant Acinetobacter baumannii (CRAb)” (mBio, 2025):
In brackets after ≈: the same amount, converted by molar mass. Like-named read-outs stand apart in the source and are kept apart here.

Tests used:
[1] = system: ADC-7 in DH10B Escherichia coli; test: MIC by broth microdilution, ADC-7 in DH10B E. coli; format: cell-based; details: DH10B E. coli expressing ADC-7 (non-Adup) from pBCSK−, FDC in iron-depleted cation-adjusted MH broth, mode of triplicate
Protocol: (§1) Susceptibility testing to standard antibiotics was performed by broth microdilution according to 2024 Clinical and Laboratory Standards Institute (CLSI) guidelines ([38]). MICs for FDC were done in iron-depleted cation-adjusted Mueller-Hinton (MH) broth according to CLSI methods. All MICs were interpreted according to the 2024 CLSI guidelines ([38]). MICs are done in triplicate, and the mode MIC value is reported.
(§2) blaADC-7 pBCSK− was cloned and expressed in E. coli DH10B cells as previously described for MIC determinations ([3]). The pBCSK-non-inducible phagemid vector has a chloramphenicol resistance gene used to aid selection. All other blaADC variants were synthesized by GenScript according to the blaADC-7 pBCSK− strategy, cloning into the XbaI/BamHI sites of the pBCSK− vector ([5]).

[2] = system: ADC-30 in DH10B Escherichia coli; test: MIC by broth microdilution, ADC-30 in DH10B E. coli; format: cell-based; details: DH10B E. coli expressing ADC-30 (non-Adup) from pBCSK−, FDC in iron-depleted cation-adjusted MH broth, mode of triplicate
Protocol: as §1, §2

[3] = system: ADC-73 in DH10B Escherichia coli; test: MIC by broth microdilution, ADC-73 in DH10B E. coli; format: cell-based; details: DH10B E. coli expressing ADC-73 (non-Adup) from pBCSK−, FDC in iron-depleted cation-adjusted MH broth, mode of triplicate
Protocol: as §1, §2

[4] = system: ADC-143 in DH10B Escherichia coli; test: MIC by broth microdilution, ADC-143 in DH10B E. coli; format: cell-based; details: DH10B E. coli expressing ADC-143 (non-Adup) from pBCSK−, FDC in iron-depleted cation-adjusted MH broth, mode of triplicate
Protocol: as §1, §2

[5] = system: ADC-217 in DH10B Escherichia coli; test: MIC by broth microdilution, ADC-217 in DH10B E. coli; format: cell-based; details: DH10B E. coli expressing ADC-217 (non-Adup) from pBCSK−, FDC in iron-depleted cation-adjusted MH broth, mode of triplicate
Protocol: as §1, §2

[6] = system: ADC-33 in DH10B Escherichia coli; test: MIC by broth microdilution, ADC-33 in DH10B E. coli; format: cell-based; details: DH10B E. coli expressing ADC-33 (Adup) from pBCSK−, FDC in iron-depleted cation-adjusted MH broth, mode of triplicate
Protocol: as §1, §2

[7] = system: ADC-172 in DH10B Escherichia coli; test: MIC by broth microdilution, ADC-172 in DH10B E. coli; format: cell-based; details: DH10B E. coli expressing ADC-172 (Adup) from pBCSK−, FDC in iron-depleted cation-adjusted MH broth, mode of triplicate
Protocol: as §1, §2

[8] = system: ADC-218 in DH10B Escherichia coli; test: MIC by broth microdilution, ADC-218 in DH10B E. coli; format: cell-based; details: DH10B E. coli expressing ADC-218 (Adup) from pBCSK−, FDC in iron-depleted cation-adjusted MH broth, mode of triplicate
Protocol: as §1, §2

[9] = system: ADC-219 in DH10B Escherichia coli; test: MIC by broth microdilution, ADC-219 in DH10B E. coli; format: cell-based; details: DH10B E. coli expressing ADC-219 (Adup) from pBCSK−, FDC in iron-depleted cation-adjusted MH broth, mode of triplicate
Protocol: as §1, §2

[10] = system: DH10B Escherichia coli pBCSK− no insert; test: MIC by broth microdilution, DH10B E. coli with pBCSK− no insert; format: cell-based; details: DH10B E. coli with pBCSK− no insert (control strain), FDC in iron-depleted cation-adjusted MH broth
Protocol: as §1, §2

[11] = system: DH10B alone; test: MIC by broth microdilution, DH10B alone; format: cell-based; details: Escherichia coli; DH10B alone (control strain); FDC in iron-depleted cation-adjusted MH broth
Protocol: as §1, §2

[12] = biological target: ADC-7 (Acinetobacter baumannii, UniProt Q6DRA1); test: Competition kinetics with nitrocefin (Ki), ADC-7; format: biochemical; details: 3 min pre-incubation, Cheng-Prusoff corrected
Protocol: (§3) For inhibition kinetics, utilizing NCF as a colorimetric substrate of ADCs, the inhibition constant (Ki) of CAZ and FDC with ADCs was determined using competition kinetics as previously described ([5]). After a 3 min pre-incubation of the enzyme (2 nM) with increasing concentration of the inhibitor, measurements of the initial velocities were performed with the addition of 100–200 µM NCF (twofold of the experimentally determined KM value). To determine the average velocities (v0), data from three experiments were fit to the followingequation: […]
(§4) where vu represents the NCF uninhibited velocity and IC50 represents the inhibitor concentration that results in a 50% reduction of vu. The Ki value was corrected for the NCF affinity (KM values for each ADC) with the Cheng-Prusoff ([5]) equation: […]
(§5) The standard error for Ki values was generated by factoring in the larger of the proportional standard errors for the individual IC50 value and the KM -NCF value.

[13] = biological target: T1, ADC-30 (Acinetobacter baumannii, UniProt A7XM81); test: Competition kinetics with nitrocefin (Ki), ADC-30; format: biochemical; details: 3 min pre-incubation, Cheng-Prusoff corrected
Protocol: as §3, §4, §5

[14] = biological target: ADC-73 (Acinetobacter baumannii, UniProt A0A059ZDI2); test: Competition kinetics with nitrocefin (Ki), ADC-73; format: biochemical; details: 3 min pre-incubation, Cheng-Prusoff corrected
Protocol: as §3, §4, §5

[15] = biological target: ADC-143 (Acinetobacter baumannii, UniProt Q6DRA1, Q144K, form not given); test: Competition kinetics with nitrocefin (Ki), ADC-143; format: biochemical; details: 3 min pre-incubation, Cheng-Prusoff corrected
Protocol: as §3, §4, §5

[16] = biological target: ADC-217 (Acinetobacter baumannii, UniProt Q6DRA1, V286E, form not given); test: Competition kinetics with nitrocefin (Ki), ADC-217; format: biochemical; details: 3 min pre-incubation, Cheng-Prusoff corrected
Protocol: as §3, §4, §5

[17] = biological target: T2, ADC-33 (Acinetobacter baumannii, UniProt A7Y407); test: Competition kinetics with nitrocefin (Ki), ADC-33; format: biochemical; details: 3 min pre-incubation, Cheng-Prusoff corrected
Protocol: as §3, §4, §5

[18] = biological target: ADC-172 (Acinetobacter baumannii, UniProt A7Y407, N321K); test: Competition kinetics with nitrocefin (Ki), ADC-172; format: biochemical; details: 3 min pre-incubation, Cheng-Prusoff corrected
Protocol: as §3, §4, §5

[19] = biological target: T1, ADC-30; test: Timed electrospray ionization mass spectrometry of acylated adducts, ADC-30; format: binding; details: ADC-30, +468 Da adduct, at 1 h; enzyme:substrate 1:25
Protocol: (§6) β-Lactamase (5 µg) was incubated with substrate at a molar ratio of 1:25 (FDC, CAZ, meropenem [MEM]) in sterile 10 mM PBS, pH 7.4, for a total reaction volume of 20 µL (t = 30 s, 1 min, 15 min, 30 min, 1 h, 2 h, and 24 h). Reactions were quenched with 1% acetonitrile and 0.1% formic acid. Samples were analyzed using Q-TOF Waters Synapt-G2-Si and a Waters Acquity ultrapressure liquid chromatography BEH C18 column (1.7 µm […]; 2.1 × 50 mm). MassLynx v.4.1 was used to deconvolute protein peaks. The tune settings for each data run were as follows: capillary voltage at 3.5 kV, sampling cone at 35, source offset at 35, source temperature 100°C, desolvation temperature 500°C, cone gas at 100 L/h, desolvation gas at 800 L/h, and nebulizer bar at 6.0. Mobile phase A was 0.1% formic acid-water. Mobile phase B was 0.1% formic acid-acetonitrile. The mass accuracy for this system is ±5 Da. Mass spectrometry experiments were performed once over a range of time points.

[20] = biological target: T2, ADC-33; test: Timed electrospray ionization mass spectrometry of acylated adducts, ADC-33; format: binding; details: ADC-33, incubation 30 s–1 h; enzyme:substrate 1:25
Protocol: as §6

[21] = biological target: T1, ADC-30; test: Thermal denaturation by circular dichroism, ADC-30; format: binding; details: ADC-30 12 µM, 1 mM antibiotic, PBS pH 7.4; read-out: change of Tm of the β-lactamase on addition of antibiotic
Protocol: (§7) For thermal denaturation, protein samples were monitored for helical content by circular dichroism in the far-UV region at 210 and 220 nm using a Jasco J-815 spectrometer (Easton, MD) with a Peltier-effect temperature controller, as previously described ([41]). Enzyme concentrations were 12 µM in phosphate-buffered saline (PBS) pH 7.4. The thermodynamic stability of apoADC-30 and ADC-33, and with 1 mM FDC and CAZ, was determined from equilibrium unfolding curves. With the assumption of a reversible two-state transition, we determined the Tm at the midpoint of equilibrium folding. Thermal denaturation experiments were done in duplicate under the same conditions, with each data point representing the average of three successive scans, and the Tm values are consistent with ±1°C variation.

[22] = biological target: T2, ADC-33; test: Thermal denaturation by circular dichroism, ADC-33; format: binding; details: ADC-33 12 µM, 1 mM antibiotic, PBS pH 7.4
Protocol: as §7

[23] = biological target: T2, ADC-33; details: hydrolysis by ADC-33; previously determined; cited from earlier work
[24] = system: CRAb isolates; details: certain CRAb isolates with elevated MICs; cited from earlier work
[25] = Escherichia coli, read-out: MIC

Question: Which results are given for `CO/N=C(\C(=O)N[C@@H]1C(=O)N2C(C(=O)O)=C(COC(C)=O)CS[C@H]12)c1csc(N)n1` [CTX, cefotaxime]?
Answer: MIC [1]: 64 µg/mL (≈ 141 µM); MIC [2]: 32 µg/mL (≈ 70.3 µM); MIC [3]: 32 µg/mL (≈ 70.3 µM); MIC [4]: 32 µg/mL (≈ 70.3 µM); MIC [5]: 64 µg/mL (≈ 141 µM); MIC [6]: 64 µg/mL (≈ 141 µM); MIC [7, 25]: 32 µg/mL (≈ 70.3 µM); MIC [8]: 256 µg/mL (≈ 562 µM); MIC [9]: 32 µg/mL (≈ 70.3 µM); MIC [10]: 0.06 µg/mL (≈ 0.132 µM); MIC [11]: 0.12 µg/mL (≈ 0.263 µM)

Question: Which MIC [10] does the source give for `C[C@@H](O)[C@H]1C(=O)N2C(C(=O)O)=C(SCCN=CN)C[C@H]12` [IPM, imipenem] here?
Answer: 0.25 µg/mL (≈ 0.835 µM)

Question: For `CC(C)(O/N=C(\C(=O)N[C@@H]1C(=O)N2C(C(=O)[O-])=C(C[N+]3(CCNC(=O)c4ccc(O)c(O)c4Cl)CCCC3)CS[C@H]12)c1csc(N)n1)C(=O)O` [FDC, cefiderocol], which MIC [5] is on record?
Answer: 0.25 µg/mL (≈ 0.332 µM)

Question: And the MIC [6]?
Answer: 0.5 µg/mL (≈ 0.665 µM)

Question: And the MIC [7]?
Answer: 1.0 µg/mL (≈ 1.33 µM)

Question: What about the MIC [7, 25] of the same compound?
Answer: 1 µg/mL (≈ 1.33 µM)

Question: What about the MIC [8] of the same compound?
Answer: 0.5 µg/mL (≈ 0.665 µM)

Question: What about the MIC [10] of the same compound?
Answer: 0.125 µg/mL (≈ 0.166 µM)

Question: What about the MIC [11] of the same compound?
Answer: 0.06 µg/mL (≈ 0.0798 µM)

Question: What about the Ki [12] of the same compound?
Answer: 75 ± 5.32 µM

Question: And the Ki [13]?
Answer: 62.7 ± 3.95 µM

Question: And the Ki [14]?
Answer: 111 ± 9.7 µM

Question: And the Ki [15]?
Answer: 171 ± 27.7 µM

Question: What about the Ki [16] of the same compound?
Answer: 0.21 ± 0.025 µM

Question: And the Ki [17]?
Answer: 19.3 ± 1.46 µM

Question: What about the Ki [18] of the same compound?
Answer: 3.26 ± 0.31 µM

Question: And the “percentage of acylated adduct” value [19]?
Answer: 70%

Question: What about the “formation of stable acyl-enzyme adduct” value [20] of the same compound?
Answer: did not form a stable acyl-enzyme adduct

Question: What about the ΔTm at 1000 µM [21] of the same compound?
Answer: 2 °C

Question: What about the “change of Tm of the β-lactamase on addition of antibiotic” value [22] of the same compound?
Answer: not observed

Question: And the kcat [23]?
Answer: 0.60 s⁻¹

Question: And the MIC [24]?
Answer: ≥ 64 µg/mL
